# From patent US12686673B2 (Blueprint Medicines Corporation, priority 2020, dated 2026)
# Where a name gives a salt, the structure may show the parent alone. Read-outs that look alike come from different tables or passages of the source.
# What was measured:
# Format in all cases: cell-based
# [1] = target: EGFR(D770_N771insSVD) expressing Ba/F3 stable cell line (Homo sapiens, UniProt P00533, DUP768-770, cells depend on it); experiment: Cellular proliferation (Alamar Blue) assay, EGFR D770_N771insSVD Ba/F3; settings: 72 hr, read-out: D770 IC50
# Description: (§1) • 1. EGFR(D770_N771insSVD) expressing Ba/F3 stable cell line • 2. EGFR (A767_dupASV) expressing Ba/F3 stable cell line • 3. A431 cells • 4. EGFR (H773insNPH) expressing Ba/F3 stable cell line • 5. HER2 (A775_G776insYVMA) expressing Ba/F3 stable cell line Assay Procedure: • 1. Seed cells at 5000 for A431 and 15,000 cells for Ba/F3 in 100 μL/well in complete media (for A431: DMEM with […] and for Ba/F3 cells: RPMI with 10% FBS) in 96-well tissue culture plate. Leave outer wells without cells for background measurements. Incubate at 37 degree Celsius in […] humidified incubator for 16-18 hours. • 2. Add 0.025 ml of 5× concentration compound dilution or DMSO control. Final compound concentration range is 10-0.0005 μM prepared in 3-fold serial dilutions. Incubate for 72 hr at 37 degree Celsius in […] humidified incubator. • 3. Add 0.0125 ml Alamar Blue™ reagent to each well with multi-channel pipette and tap gently on each side of the plate to mix. Incubate for 3 hours at 37 degree Celsius in 5% CO2 humidified incubator. • 4. […] Data analysis was performed using XLfit 5.5.0.5.
# [2] = target: EGFR (A767_dupASV) expressing Ba/F3 stable cell line (Homo sapiens, UniProt P00533, DUP767-769, cells depend on it); experiment: Cellular proliferation (Alamar Blue) assay, EGFR A767_dupASV Ba/F3; settings: 72 hr, read-out: A767 IC50
# Description: as §1
# A431 cells = experiment: Cellular proliferation (Alamar Blue) assay, A431
# Description: as §1
# [3] = Homo sapiens, A-431; A431 cells, 72 hr, Alamar Blue; read-out: A431 IC50
# [4] = Homo sapiens, A-431; A431 cells, Alamar Blue, 72 hr; read-out: A431 IC50
# Chain of EGFR(D770_N771insSVD) expressing Ba/F3 stable cell line (P00533 with tags, fused parts or gaps DUP768-770): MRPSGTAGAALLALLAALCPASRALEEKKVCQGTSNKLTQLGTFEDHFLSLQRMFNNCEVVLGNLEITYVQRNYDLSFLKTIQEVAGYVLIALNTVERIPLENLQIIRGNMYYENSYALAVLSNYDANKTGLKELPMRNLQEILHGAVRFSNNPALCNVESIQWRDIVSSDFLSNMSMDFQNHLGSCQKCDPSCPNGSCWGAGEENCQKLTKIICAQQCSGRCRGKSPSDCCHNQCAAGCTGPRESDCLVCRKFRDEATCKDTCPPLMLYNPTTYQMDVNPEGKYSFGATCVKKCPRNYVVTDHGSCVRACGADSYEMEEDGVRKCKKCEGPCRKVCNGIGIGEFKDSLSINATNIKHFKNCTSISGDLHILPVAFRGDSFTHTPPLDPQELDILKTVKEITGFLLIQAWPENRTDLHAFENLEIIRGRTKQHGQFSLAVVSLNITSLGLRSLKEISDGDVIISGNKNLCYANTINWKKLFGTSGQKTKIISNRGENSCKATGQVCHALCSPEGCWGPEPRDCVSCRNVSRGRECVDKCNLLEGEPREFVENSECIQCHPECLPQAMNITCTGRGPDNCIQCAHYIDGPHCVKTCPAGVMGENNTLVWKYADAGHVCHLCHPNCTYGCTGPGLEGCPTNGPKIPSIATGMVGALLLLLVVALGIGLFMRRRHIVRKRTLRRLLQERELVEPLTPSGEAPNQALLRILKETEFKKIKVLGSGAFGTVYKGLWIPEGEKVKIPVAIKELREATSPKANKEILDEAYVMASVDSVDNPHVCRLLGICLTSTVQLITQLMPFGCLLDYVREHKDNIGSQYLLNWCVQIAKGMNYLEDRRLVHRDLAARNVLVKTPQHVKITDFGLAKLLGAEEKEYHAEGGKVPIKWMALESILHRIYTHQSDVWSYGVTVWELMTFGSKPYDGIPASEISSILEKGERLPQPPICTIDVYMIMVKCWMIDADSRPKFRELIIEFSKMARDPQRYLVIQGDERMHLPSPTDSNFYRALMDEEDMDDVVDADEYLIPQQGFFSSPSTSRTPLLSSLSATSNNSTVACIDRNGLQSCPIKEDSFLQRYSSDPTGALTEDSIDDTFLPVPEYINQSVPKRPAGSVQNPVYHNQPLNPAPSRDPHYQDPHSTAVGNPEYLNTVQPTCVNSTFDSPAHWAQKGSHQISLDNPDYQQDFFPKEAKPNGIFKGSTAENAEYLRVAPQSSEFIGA
# Chain of EGFR (A767_dupASV) expressing Ba/F3 stable cell line (P00533 with tags, fused parts or gaps DUP767-769): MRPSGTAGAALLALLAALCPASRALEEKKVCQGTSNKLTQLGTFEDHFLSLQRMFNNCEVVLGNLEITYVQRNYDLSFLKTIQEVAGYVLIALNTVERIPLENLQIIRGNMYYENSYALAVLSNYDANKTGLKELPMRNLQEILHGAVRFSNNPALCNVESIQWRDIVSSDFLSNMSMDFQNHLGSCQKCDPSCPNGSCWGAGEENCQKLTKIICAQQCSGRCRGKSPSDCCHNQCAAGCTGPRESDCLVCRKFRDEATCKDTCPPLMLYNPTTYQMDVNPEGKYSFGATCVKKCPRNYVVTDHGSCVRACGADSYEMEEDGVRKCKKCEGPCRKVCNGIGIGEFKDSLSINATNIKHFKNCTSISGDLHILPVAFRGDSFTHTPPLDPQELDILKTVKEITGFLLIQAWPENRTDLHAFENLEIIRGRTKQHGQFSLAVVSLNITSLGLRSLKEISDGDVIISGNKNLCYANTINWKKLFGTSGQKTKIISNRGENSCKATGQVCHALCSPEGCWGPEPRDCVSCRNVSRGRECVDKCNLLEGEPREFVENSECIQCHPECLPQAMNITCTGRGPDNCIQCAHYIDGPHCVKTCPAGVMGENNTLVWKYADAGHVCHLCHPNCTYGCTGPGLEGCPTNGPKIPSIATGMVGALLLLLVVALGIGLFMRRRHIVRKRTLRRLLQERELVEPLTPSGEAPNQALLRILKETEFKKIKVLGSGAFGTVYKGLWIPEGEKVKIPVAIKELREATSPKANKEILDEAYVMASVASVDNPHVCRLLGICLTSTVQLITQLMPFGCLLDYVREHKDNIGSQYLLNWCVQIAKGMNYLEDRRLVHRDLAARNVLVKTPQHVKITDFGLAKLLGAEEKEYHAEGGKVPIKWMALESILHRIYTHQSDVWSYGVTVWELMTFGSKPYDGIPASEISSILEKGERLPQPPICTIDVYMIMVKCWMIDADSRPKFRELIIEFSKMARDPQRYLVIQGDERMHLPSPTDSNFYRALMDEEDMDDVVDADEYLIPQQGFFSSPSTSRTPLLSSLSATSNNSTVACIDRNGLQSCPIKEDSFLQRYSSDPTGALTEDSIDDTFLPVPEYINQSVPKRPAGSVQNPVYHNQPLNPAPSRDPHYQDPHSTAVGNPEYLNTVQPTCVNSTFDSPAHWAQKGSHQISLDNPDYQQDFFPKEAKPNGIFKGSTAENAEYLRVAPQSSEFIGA
GI50 [1] [nM],GI50 [2] [nM],IC50 (A431 cells; [3]) [µM],IC50 (A431 cells; [4]) [µM],Compound
1520,969,0.79,–,"CN(C)C/C=C/C(=O)Nc1ccc(F)c(Nc2nc(Nc3cnn(C)c3)ncc2-c2ccc(Br)cc2)c1 [Compound 304, (E)-N-(3-((5-(4-bromophenyl)-2-((1-methyl-1H-pyrazol-4-yl)amino)pyrimidin-4-yl)amino)-4-fluorophenyl)-4-(dimethylamino)but-2-enamide]"
> 10000,> 10000,–,> 10,"C=CC(=O)Nc1ccc(F)c(Nc2nc(NC3CC3)ncc2-c2ccc(C(F)(F)F)cc2)c1 [Compound 180, N-(3-{[2-(cyclopropylamino)-5-[4-(trifluoromethyl)phenyl]pyrimidin-4-yl]amino}-4-fluorophenyl)prop-2-enamide]"
1290,3680,1.82,–,"C=CC(=O)Nc1ccc(F)c(Nc2nc(Nc3nc(C)cs3)ncc2-c2ccc(C(F)(F)F)cc2)c1 [Compound 213, N-(4-fluoro-3-((2-((4-methylthiazol-2-yl)amino)-5-(4-(trifluoromethyl)phenyl)pyrimidin-4-yl)amino)phenyl)acrylamide]"
256,751,–,0.082,"C=CC(=O)Nc1ccc(F)c(Nc2nc(Nc3cnn(C)c3)ncc2-c2ccnc(C)c2)c1 [Compound 80, N-(4-fluoro-3-((2-((1-methyl-1H-pyrazol-4-yl)amino)-5-(2-methylpyridin-4-yl)pyrimidin-4-yl)amino)phenyl)acrylamide]"
6020,2760,1.28,–,"C=CC(=O)Nc1cc(Nc2nc(Nc3cnn(C)c3)ncc2-c2ccc(C(F)(F)F)cc2)ccn1 [Compound 200, N-(4-((2-((1-methyl-1H-pyrazol-4-yl)amino)-5-(4-(trifluoromethyl)phenyl)pyrimidin-4-yl)amino)pyridin-2-yl)acrylamide]"
1410,2480,–,6.46,"C=CC(=O)Nc1ccc(F)c(Nc2nc(Nc3cnn(C)c3)nnc2Cl)c1 [Compound 155, N-(3-((6-chloro-3-((1-methyl-1H-pyrazol-4-yl)amino)-1,2,4-triazin-5-yl)amino)-4-fluorophenyl)acrylamide]"
911,2020,–,3.98,"C=CC(=O)Nc1ccc(F)c(Nc2nc(Nc3cnn(C)c3)ncc2-c2cccc(N(C)C)c2)c1 [Compound 145, N-(3-((5-(3-(dimethylamino)phenyl)-2-((1-methyl-1H-pyrazol-4-yl)amino)pyrimidin-4-yl)amino)-4-fluorophenyl)acrylamide]"
318,426,0.222,–,"C=CC(=O)Nc1cccc(N(C)c2nc(Nc3cnn(C)c3)ncc2-c2ccc(C(F)(F)F)cc2)c1 [Compound 229, N-(3-(methyl(2-((1-methyl-1H-pyrazol-4-yl)amino)-5-(4-(trifluoromethyl)phenyl)pyrimidin-4-yl)amino)phenyl)acrylamide]"
> 10000,> 10000,–,> 10,"C=CC(=O)Nc1cccc(Oc2nc(NC3CC3)ncc2-c2ccc(C(F)(F)F)cc2)c1 [Compound 194, N-(3-((2-(cyclopropylamino)-5-(4-(trifluoromethyl)phenyl)pyrimidin-4-yl)oxy)phenyl)acrylamide]"
884,1570,> 10,–,"C=CC(=O)Nc1ccc(F)c(Nc2nc(Nc3cc(C)sn3)ncc2-c2ccc(C(F)(F)F)cc2)c1 [Compound 212, N-(4-fluoro-3-((2-((5-methylisothiazol-3-yl)amino)-5-(4-(trifluoromethyl)phenyl)pyrimidin-4-yl)amino)phenyl)acrylamide]"
3000,1760,–,6.59,"CN(C)C/C=C/C(=O)Nc1ccc(F)c(Nc2nc(Nc3cnn(C)c3)ncc2Cl)c1 [Compound 4, (E)-N-(3-((5-chloro-2-((1-methyl-1H-pyrazol-4-yl)amino)pyrimidin-4-yl)amino)-4-fluorophenyl)-4-(dimethylamino)but-2-enamide]"
> 10000,> 10000,> 10,–,"C=CC(=O)Nc1cccc(Nc2nc(Nc3cnn(C)c3)nc(NC)c2-c2ccc(C(F)(F)F)cc2)c1 [Compound 224, N-[3-({2-[(1-methyl-1H-pyrazol-4-yl)amino]-6-(methylamino)-5-[4-(trifluoromethyl)phenyl]pyrimidin-4-yl}amino)phenyl] prop-2-enamide]"
9240,> 10000,–,> 10,"C=CC(=O)Nc1ccc(F)c(Nc2nc(Nc3ccc(=O)[nH]c3)ncc2Cl)c1 [Compound 2, N-(3-((5-chloro-2-((6-oxo-1,6-dihydropyridin-3-yl)amino)pyrimidin-4-yl)amino)-4-fluorophenyl)acrylamide]"
1990,> 10000,–,3.69,"C=CC(=O)Nc1ccc(F)c(Nc2nc(Nc3ccc(F)cc3)ncc2-c2ccc(C(F)(F)F)cc2)c1 [Compound 122, N-(4-fluoro-3-((2-((4-fluorophenyl)amino)-5-(4-(trifluoromethyl)phenyl)pyrimidin-4-yl)amino)phenyl)acrylamide trifluoroacetate]"
> 10000,> 10000,–,> 10,"C=CC(=O)Nc1ccc(F)c(Nc2nc(NC3CCC3)ncc2-c2ccc(C(F)(F)F)cc2)c1 [Compound 181, N-(3-((2-(cyclobutylamino)-5-(4-(trifluoromethyl)phenyl)pyrimidin-4-yl)amino)-4-fluorophenyl)acrylamide]"
> 10000,> 10000,–,8.76,"C=CC(=O)Nc1cccc(Oc2nc(Nc3ccccc3OC)ncc2-c2ccc(C(F)(F)F)cc2)c1 [Compound 193, N-[3-({2-[(2-methoxyphenyl)amino]-5-[4-(trifluoromethyl)phenyl]pyrimidin-4-yl}oxy)phenyl]prop-2-enamide]"
360,947,–,1.36,"C=CC(=O)Nc1ccc(F)c(Nc2nc(Nc3cccnc3F)ncc2-c2ccc(C(F)(F)F)cc2)c1 [Compound 38, N-(4-fluoro-3-((2-((2-fluoropyridin-3-yl)amino)-5-(4-(trifluoromethyl)phenyl)pyrimidin-4-yl)amino)phenyl)acrylamide]"
> 10000,> 10000,–,3.01,"C=CC(=O)Nc1ccc(Nc2nc(Nc3cnn(C)c3)ncc2Cl)c(F)c1 [Compound 10, N-(4-((5-chloro-2-((1-methyl-1H-pyrazol-4-yl)amino)pyrimidin-4-yl)amino)-3-fluorophenyl)acrylamide]"
320,286,–,0.292,"C=CC(=O)Nc1cccc(Oc2nc(Nc3cnn(C)c3)ncc2-c2cncc(C)c2)c1 [Compound 183, N-[3-({2-[(1-methyl-1H-pyrazol-4-yl)amino]-5-(5-methylpyridin-3-yl)pyrimidin-4-yl}oxy)phenyl]prop-2-enamide]"
> 10000,> 10000,–,> 10,"C=CC(=O)Nc1cccc(Oc2nc(Nc3cnn(C)c3)cnc2Cl)c1 [Compound 154, N-(3-((3-chloro-6-((1-methyl-1H-pyrazol-4-yl)amino)pyrazin-2-yl)oxy)phenyl)acrylamide]"
991,> 10000,2.27,–,"C=CC(=O)Nc1ccc(F)c(Nc2nc(Nc3nccs3)ncc2-c2ccc(C(F)(F)F)cc2)c1 [Compound 215, N-(4-fluoro-3-((2-(thiazol-2-ylamino)-5-(4-(trifluoromethyl)phenyl)pyrimidin-4-yl)amino)phenyl)acrylamide]"
1000,2740,–,1.94,"C=CC(=O)Nc1ccc(F)c(Nc2nc(Nc3cnn(C)c3)ncc2-c2ccccc2C(F)(F)F)c1 [Compound 65, N-(4-fluoro-3-((2-((1-methyl-1H-pyrazol-4-yl)amino)-5-(2-(trifluoromethyl)phenyl)pyrimidin-4-yl)amino)phenyl)acrylamide]"
> 10000,> 10000,–,> 10,"CN(C)C/C=C/C(=O)Nc1cccc(F)c1CNc1nc(Nc2cnn(C)c2)ncc1Cl [Compound 174, (E)-N-(2-(((5-chloro-2-((1-methyl-1H-pyrazol-4-yl)amino)pyrimidin-4-yl)amino)methyl)-3-fluorophenyl)-4-(dimethylamino)but-2-enamide]"
111,248,0.02,–,"Cn1cc(Nc2ncc(-c3ccc(CC(F)(F)F)cc3)c(Nc3cc(NC(=O)/C=C/CF)ccc3F)n2)cn1 [Compound 303, (E)-4-fluoro-N-(4-fluoro-3-((2-((1-methyl-1H-pyrazol-4-yl)amino)-5-(4-(2,2,2-trifluoroethyl)phenyl)pyrimidin-4-yl)amino)phenyl)but-2-enamide]"

Compound,GI50 [1] [nM],GI50 [2] [nM],IC50 (A431 cells; [3]) [µM],IC50 (A431 cells; [4]) [µM]
"C=CC(=O)Nc1cccc(Oc2nc(Nc3cnn(C)c3)ncc2C2=CCN(C)CC2)c1 [Compound 190, N-(3-((5-(1-methyl-1,2,3,6-tetrahydropyridin-4-yl)-2-((1-methyl-1H-pyrazol-4-yl)amino)pyrimidin-4-yl)oxy)phenyl)acrylamide]",8860,9040,–,6.76
